Assay results taken from patent US12043602B2, “Fendiline derivatives” (The Board of Regents of the University of Texas System, priority 2019, dated 2024).
“And” between values parts separate entries of the source, which are not always exact repeats. Identical values can stand only once. Like-named read-outs stand apart in the source and are kept apart here.

Experiments:
mGFP-K-RASG12V = mGFP-K-RASG12V (Homo sapiens (Human), UniProt P01116, G12V); test: K-Ras mislocalization assay (confocal microscopy, Manders coefficient); format: cell-based; parameters: key to Emax: Manders coefficient: fraction of mCherry-CAAX co-localizing with GFP-K-Ras; details: for IC50 / Emax: MDCK cells; for IC50: 48 h treatment, read-out: IC50 (μM), KRASG12V mislocalization; for Emax: maximal effect, Manders coefficient, 48 h
Protocol: Madine Darby Canine Kidney epithelial cells (MDCK) stably co-expressing mGFP-tagged full length oncogenic mutant K-Ras (GFP—K-RASG12V) or mGFP-LactC2 (peptide probe for phosphatidylserine) and mCherry-tagged to the amino acids 179-189 of H-RasC181S, C184S (mCherry-CAAX, localizes primarily to endomembranes) were grown in DMEM-high glucose/sodium pyruvate/10% FBS. The medium was supplemented with 1× Penicillin/Streptomycin for fluorescence microscopy assays, to avoid any microbial contamination from the test compounds added. KLE and Hec50 cells were maintained in DMEM-F-12 medium supplemented with 10% FBS. Hec-1A and Hec-1B cells were grown in McCoy's 5a medium supplemented with 10% FBS. ESS-1 cells were grown in RPMI 1640 medium supplemented with 20% FBS. MPanc96 cells were grown in DMEM supplemented with 10% FBS, MiaPaCa-2 cells in DMEM supplemented with 10% FBS and 2.5% horse serum and all other cell lines were grown in RPMI 1640 supplemented with 10% FBS. All cancer cell media were supplemented with ×Penicillin/Streptomycin. All cell lines were grown at 37° C. with 5% CO2.
MDCK co-expressing GFP—K-RASG12V or LactC2 and mCherry-CAAX were grown on coverslips, treated with 0.1% vehicle (DMSO) or various concentrations of drugs for 48 h, and fixed with 4% paraformaldehyde. The coverslips were mounted in mowiol and imaged by confocal microscopy (Nikon A1) using a 60× objective. Using ImageJ software v1.42q, images were converted to 8-bit, and a threshold to a control pixel of each image was set. As a measure of K-Ras/LactC2 mislocalization, the fraction of mCherry-CAAX co-localizing with mGFP-K-RASG12V was calculated using a Manders coefficient plugin downloaded from Wright Cell Image Facility. The fraction of mCherry-CAAX co-localizing with mGFP-RASG12V (Mander's coefficient) is proportional to K-Ras mislocalization.

[1] = test system: MDCK cells co-expressing GFP-K-RASG12V and mCherry-CAAX; test: Cytotoxicity in mislocalization screen (death of all cells in well); details: drug caused death of all cells in well at 30 μM

Compound: COc1ccc([C@@H](C)N(CC=C(c2ccccc2)c2ccccc2)CCN2CCNCC2)cc1 [NY347, (R)-N-(1-(4-methoxyphenyl)ethyl)-3,3-diphenyl-N-(2-(piperazin-1-yl)ethyl)prop-2-en-1-amine]
- IC50 (mGFP-K-RASG12V): 1.3 µM
- Emax (mGFP-K-RASG12V): 0.86 ± 0.02
- Emax (mGFP-K-RASG12V; listed as 12e): 0.90
- Cytotoxic at 30 μM [1]: Yes
- Cytotoxic at 30 μM ([1]; listed as 12e): cytotoxicity

Compound: CCOC(CCCN(CC=C(c1ccccc1)c1ccccc1)[C@H](C)c1ccc(OC)cc1)OCC [NY348, (R)-N-(3,3-diphenylallyl)-4,4-diethoxy-N-(1-(4-methoxyphenyl)ethyl)butan-1-amine]
- IC50 (mGFP-K-RASG12V): 5.47 µM
- Emax (mGFP-K-RASG12V): 0.963
- Cytotoxic at 30 μM [1]: No

Compound: C=CCN(CCN1CCN(C)CC1)[C@H](C)c1ccc(OC)cc1 [NY349, (R)-N-(1-(4-methoxyphenyl)ethyl)-N-(2-(4-methylpiperazin-1-yl)ethyl)prop-2-en-1-amine]
- KRAS PM localization inhibition activity (in words) (mGFP-K-RASG12V): complete loss of in vitro activity
- IC50 (mGFP-K-RASG12V): 59.3 µM
- Emax (mGFP-K-RASG12V): 0.76 ± 0.02
- Cytotoxic at 30 μM [1]: No

Compound: COc1ccc([C@@H](C)N(CC=C(c2ccccc2)c2ccccc2)CCN2CCN(C(C)=O)CC2)cc1 [NY350, (R)-1-(4-(2-((3,3-diphenylallyl)(1-(4-methoxyphenyl)ethyl)amino)ethyl)piperazin-1-yl)ethanone]
- Emax (mGFP-K-RASG12V): 0.877
- Cytotoxic at 30 μM [1]: No

Compound: COc1ccc([C@@H](C)N(CC=C(c2ccccc2)c2ccccc2)CCN2CCN(S(C)(=O)=O)CC2)cc1 [NY351, (R)-N-(1-(4-methoxyphenyl)ethyl)-N-(2-(4-(methylsulfonyl)piperazin-1-yl)ethyl)-3,3-diphenylprop-2-en-1-amine]
- IC50 (mGFP-K-RASG12V): 1.11 µM
- Emax (mGFP-K-RASG12V): 0.851
- Cytotoxic at 30 μM [1]: No

Compound: COc1ccc([C@@H](C)N(CC=C(c2ccccc2)c2ccccc2)CCN2CCN(C(=O)Nc3ccccc3)CC2)cc1 [NY352, (R)-4-(2-((3,3-diphenylallyl)(1-(4-methoxyphenyl)ethyl)amino)ethyl)-N-phenylpiperazine-1-carboxamide]
- IC50 (mGFP-K-RASG12V): 1.68 µM
- Emax (mGFP-K-RASG12V): 0.920
- Cytotoxic at 30 μM [1]: Yes

Compound: COc1ccc([C@@H](C)N(CC=C(c2ccccc2)c2ccccc2)CCN2CCN(C(=O)Oc3ccccc3)CC2)cc1 [NY353, (R)-phenyl 4-(2-((3,3-diphenylallyl)(1-(4-methoxyphenyl)ethyl)amino)ethyl) piperazine-1-carboxylate]
- IC50 (mGFP-K-RASG12V): 3.26 µM
- Emax (mGFP-K-RASG12V): 0.920
- Cytotoxic at 30 μM [1]: No

Compound: C#CCN1CCN(CCN(CC=C(c2ccccc2)c2ccccc2)[C@H](C)c2ccc(OC)cc2)CC1 [NY356, (R)-N-(1-(4-methoxyphenyl)ethyl)-3,3-diphenyl-N-(2-(4-(prop-2-ynyl)piperazin-1-yl)ethyl)prop-2-en-1-amine]
- IC50 (mGFP-K-RASG12V): 4.19 µM
- Emax (mGFP-K-RASG12V): 0.886
- Cytotoxic at 30 μM [1]: No

Compound: C=CC(=O)N1CCN(CCN(CC=C(c2ccccc2)c2ccccc2)[C@H](C)c2ccc(OC)cc2)CC1 [NY0357a, (R)-1-(4-(2-((3,3-diphenylallyl)(1-(4-methoxyphenyl)ethyl)amino)ethyl)piperazin-1-yl)prop-2-en-1-one]
- IC50 (mGFP-K-RASG12V): 2.55 µM
- Emax (mGFP-K-RASG12V): 0.697
- Cytotoxic at 30 μM [1]: Yes

Compound: CCN(CC)CCN(CC=C(c1ccccc1)c1ccccc1)[C@H](C)c1ccc(OC)cc1 [NY0358, (R)-N^1-(3,3-diphenylallyl)-N^2,N^2-diethyl-N^1-(1-(4-methoxyphenyl)ethyl)ethane-1,2-diamine]
- IC50 (mGFP-K-RASG12V): 1.15 µM and 1.2 µM
- Emax (mGFP-K-RASG12V): 0.887
- Emax (mGFP-K-RASG12V; listed as 12b): 0.89 ± 0.01
- Cytotoxic at 30 μM [1]: Yes

Compound: COc1ccccc1[C@@H](C)N(CC=C(c1ccccc1)c1ccccc1)CCN1CCN(C)CC1 [NY0366, (R)-N-(1-(2-methoxyphenyl)ethyl)-N-(2-(4-methylpiperazin-1-yl)ethyl)-3,3-diphenylprop-2-en-1-amine]
- IC50 (mGFP-K-RASG12V; listed as 15b): 3.8 µM
- IC50 (mGFP-K-RASG12V): 3.81 µM
- Emax (mGFP-K-RASG12V): 0.861
- Emax (mGFP-K-RASG12V; listed as 15b): 0.86 ± 0.01
- Cytotoxic at 30 μM [1]: Yes

Compound: CN1CCN(CCN(CC=C(c2ccccc2)c2ccccc2)[C@@H]2CCc3ccccc32)CC1 [NY0369b, (R)-N-(3,3-diphenylallyl)-N-(2-(4-methylpiperazin-1-yl)ethyl)-2,3-dihydro-1H-inden-1-amine]
- IC50 (mGFP-K-RASG12V): 90.1 µM
- Emax (mGFP-K-RASG12V): 0.866
- Cytotoxic at 30 μM [1]: Yes

Compound: C[C@H](c1cccc(Cl)c1)N(CC=C(c1ccccc1)c1ccccc1)CCN1CCN(C)CC1 [NY0370b, (R)-N-(1-(3-chlorophenyl)ethyl)-N-(2-(4-methylpiperazin-1-yl)ethyl)-3,3-diphenylprop-2-en-1-amine]
- IC50 (mGFP-K-RASG12V): 11.2 µM
- Emax (mGFP-K-RASG12V): 0.767
- Emax (mGFP-K-RASG12V; listed as 15g): 0.77 ± 0.07
- Cytotoxic at 30 μM [1]: Yes

Compound: COc1ccc([C@@H](C)N(CC=C(c2ccccc2)c2ccccc2)CCN2CCN(CC(C)C)CC2)cc1 [NY0372, (R)-N-(2-(4-isobutylpiperazin-1-yl)ethyl)-N-(1-(4-methoxyphenyl)ethyl)-3,3-diphenylprop-2-en-1-amine]
- IC50 (mGFP-K-RASG12V): 16.4 µM
- Emax (mGFP-K-RASG12V): 0.868
- Cytotoxic at 30 μM [1]: No

Compound: CCN(CC=C(c1ccccc1)c1ccccc1)[C@H](C)c1ccc(OC)cc1 [NY0429, (R)-N-ethyl-N-(1-(4-methoxyphenyl)ethyl)-3,3-diphenylprop-2-en-1-amine]
- IC50 (mGFP-K-RASG12V; listed as 11b): 10.6 µM
- IC50 (mGFP-K-RASG12V): 10.6 µM
- Emax (mGFP-K-RASG12V): 0.835
- Emax (mGFP-K-RASG12V; listed as 11b): 0.84 ± 0.02
- Cytotoxic at 30 μM [1]: No

Compound: CCN(CC=C(c1ccccc1)c1ccccc1)[C@@H](C)c1ccc(OC)cc1 [NY0431]
- IC50 (mGFP-K-RASG12V): 2.91 µM
- Emax (mGFP-K-RASG12V): 0.756
- Cytotoxic at 30 μM [1]: No

Compound: COc1ccc([C@H](C)N(CC=C(c2ccccc2)c2ccccc2)CCN(C)C)cc1 [NY0434]
- IC50 (mGFP-K-RASG12V): 4.69 µM
- Emax (mGFP-K-RASG12V): 0.835
- Cytotoxic at 30 μM [1]: No

Compound: COc1ccc([C@@H](C)N(CC=C(c2ccccc2)c2ccccc2)CCN(C)C)cc1 [NY0435, (R)-N^1-(3,3-diphenylallyl)-N^1-(1-(4-methoxyphenyl)ethyl)-N^2,N^2-dimethylethane-1,2-diamine]
- IC50 (mGFP-K-RASG12V; listed as 12a): 11.2 µM
- IC50 (mGFP-K-RASG12V): 11.2 µM
- Emax (mGFP-K-RASG12V): 0.658
- Emax (mGFP-K-RASG12V; listed as 12a): 0.66 ± 0.01
- Cytotoxic at 30 μM [1]: Yes

Compound: COc1ccc([C@H](C)N(CC=C(c2ccccc2)c2ccccc2)CCN2CC2)cc1 [NY0436]
- IC50 (mGFP-K-RASG12V): 14 µM
- Emax (mGFP-K-RASG12V): 0.716
- Cytotoxic at 30 μM [1]: No

Compound: COc1ccc([C@@H](C)N(CC=C(c2ccccc2)c2ccccc2)CCCC=O)cc1 [NY0445, (R)-4-((3,3-diphenylallyl)(1-(4-methoxyphenyl)ethyl)amino)butanal]
- IC50 (mGFP-K-RASG12V): 2.02 µM
- Emax (mGFP-K-RASG12V): 0.694
- Cytotoxic at 30 μM [1]: No

Compound: COc1ccc([C@@H](C)N(CC=C(c2ccccc2)c2ccccc2)CCCCO)cc1 [NY0448, (R)-4-((3,3-diphenylallyl)(1-(4-methoxyphenyl)ethyl)amino)butan-1-ol]
- IC50 (mGFP-K-RASG12V): 12.7 µM
- Emax (mGFP-K-RASG12V): 0.777
- Cytotoxic at 30 μM [1]: Yes

Compound: COc1ccc([C@@H](C)N(CC=C(c2ccccc2)c2ccccc2)CCCCN2CCN(C)CC2)cc1 [NY0449, (R)-N-(3,3-diphenylallyl)-N-(1-(4-methoxyphenyl)ethyl)-4-(4-methylpiperazin-1-yl)butan-1-amine]
- KRAS PM localization inhibition activity (in words) (mGFP-K-RASG12V): significantly decreased potency
- Emax (mGFP-K-RASG12V): 0.810
- Emax (mGFP-K-RASG12V; listed as 25): 0.81 ± 0.03
- Cytotoxic at 30 μM [1]: Yes

Compound: COc1cccc([C@@H](C)N(CC=C(c2ccccc2)c2ccccc2)CCN2CCN(C)CC2)c1 [NY0452, (R)-N-(1-(3-methoxyphenyl)ethyl)-N-(2-(4-methylpiperazin-1-yl)ethyl)-3,3-diphenylprop-2-en-1-amine]
- IC50 (mGFP-K-RASG12V; listed as 15c): 2.8 µM
- IC50 (mGFP-K-RASG12V): 2.81 µM
- Emax (mGFP-K-RASG12V): 0.752
- Emax (mGFP-K-RASG12V; listed as 15c): 0.75 ± 0.04
- Cytotoxic at 30 μM [1]: Yes
